Results as given in patent US7588931B2, “High arachidonic acid producing strains of Yarrowia lipolytica” (E. I. du Pont de Nemours and Company, priority 2004, dated 2009).
Entries after “also recorded” stand apart in the source; their conditions may differ.

What was measured:
Format in all cases: cell-based, Yarrowia lipolytica
[1] = tested on: wild type Y. lipolytica strains ATCC #20362 and ATCC #90812; assay: Sulfonylurea sensitivity screening of wild type strains; settings: wild type strains ATCC #20362 and ATCC #90812
Description: When the amino acid sequences of wild type AHAS Y. lipolytica (GenBank Accession No. XP—501277) and S. cerevisiae (GenBank Accession No. P07342) enzymes were aligned, the Trp amino acid residue at position 586 of the S. cerevisiae enzyme was equivalent to the Trp residue at position 497 of the Y. lipolytica enzyme. It was therefore hypothesized that W497L mutation in the Y. lipolytica enzyme would likely confer sulfonylurea herbicide resistance, if the wild type cells were themselves sensitive to sulfonylurea. Using methodology well known to those of skill in the art, it was determined that sulfonylurea (chlorimuron ethyl) at a concentration of 100 μg/mL in minimal medium was sufficient to inhibit growth of wild type Y. lipolytica strains ATCC #20362 and ATCC #90812.

[2] = tested on: β-glucuronidase (GUS) reporter; assay: Comparative analysis of promoters by fluorometric assay of GUS expression
Protocol: GUS activity was also assayed by fluorometric determination of the production of 4-methylumbelliferone (4-MU) from the corresponding substrate β-glucuronide (Jefferson, R. A. Plant Mol. Biol. Reporter 5:387-405 (1987)).
Yarrowia lipolytica ATCC #76982 strains containing plasmids pY5-30, PYZGDG, PYZGMG, pDMW212 and pDMW214 were grown from single colonies in 3 mL MM (as described above) at 30° C. to an OD600˜1.0. Then, the 3 mL cultures were each added to a 500 mL flask containing 50 mL MM and grown in a shaking incubator at 30° C. for about 24 hrs. The cells were collected by centrifugation, resuspended in Promega Cell Lysis Buffer and lysed using the BIO 101 Biopulverizer system (Vista, Calif.). After centrifugation, the supernatants were removed and kept on ice.
Similarly, Y. lipolytica strain Y2034 containing plasmids pY5-30, pYAT-GUS, pYGPAT-GUS and pDMW214 constructs, respectively, were grown from single colonies in 10 mL SD medium at 30° C. for 48 hrs to an OD600˜5.0. Two mL of each culture was collected for GUS activity assays, as described below, while 5 mL of each culture was switched into HGM.
Specifically, cells from the 5 mL aliquot were collected by centrifugation, washed once with 5 mL of HGM and resuspended in HGM. The cultures in HGM were then grown in a shaking incubator at 30° C. for 24 hrs. Two mL of each HGM culture were collected for the GUS activity assay, while the remaining culture was allowed to grow for an additional 96 hrs before collecting an additional 2 mL of each culture for the assay.
Each 2 mL culture sample in SD medium was resuspended in 1 mL of 0.5× cell culture lysis reagent (Promega). Resuspended cells were mixed with 0.6 mL of glass beads (0.5 mm diameter) in a 2.0 mL screw cap tube with a rubber O-ring. The cells were then homogenized in a Biospec mini beadbeater (Bartlesville, Okla.) at the highest setting for 90 sec. The homogenization mixtures were centrifuged for 2 min at 14,000 rpm in an Eppendof centrifuge to remove cell debris and beads. The supernatant was used for GUS assay and protein determination.
For each fluorometric assay, 100 μl of extract was added to […] of GUS assay buffer (2 mM 4-methylumbelliferyl-β-D-glucuronide (“MUG”) in extraction buffer) or 200 μl of extract was added to 800 μl of GUS assay buffer. The mixtures were placed at 37° C. Aliquots of 100 μl were taken at 0, 30 and 60 min time points and added to 900 μl of stop buffer (1 M Na2CO3). Each time point was read using a CytoFluor Series 4000 Fluorescence Multi-Well Plate Reader (PerSeptive Biosystems, Framingham, Mass.) set to an excitation wavelength of 360 nm and an emission wavelength of 455 nm. Total protein concentration of each sample was determined using 10 μl of extract and 200 μl of BioRad Bradford reagent or 20 μl of extract and 980 μl of BioRad Bradford reagent (Bradford, M. M. Anal. Biochem. 72:248-254 (1976)). GUS activity was expressed as nmoles of 4-MU per minute per mg of protein.

[3] = tested on: β-glucuronidase (GUS) reporter; assay: Relative promoter activity rank from comparative GUS reporter studies (histochemical, fluorometric and/or Real Time PCR); settings: relative to other promoters
Protocol: The activity of GPM is about the same as TEF, while the activity of GPD, FBA, FBAIN, FBAINm, GPDIN, GPAT, YAT1 and EXP1 are all greater than TEF (activity is quantified in a relative manner in the column titled “Activity Rank”, wherein a ‘1’ corresponds to the promoter with lowest activity, while a ‘7’ corresponds to the promoter with highest activity). […] GUS activity in each expressed construct was measured by histochemical and/or fluorometric assays (Jefferson, R. A. Plant Mol. Biol. Reporter 5:387-405 (1987)) and/or by use of Real Time PCR.

[4] = tested on: β-glucuronidase (GUS) reporter; assay: Comparative analysis of promoters by histochemical analysis of GUS expression
Protocol: Comparative studies investigating the promoter activities of the TEF, GPD, GPDIN, GPM, GPAT, FBA, FBAIN and YAT1 promoters were performed, by synthesizing constructs comprising each promoter and the E. coli gene encoding β-glucuronidase (GUS) as a reporter gene (Jefferson, R. A. Nature. 14(342):837-838 (1989)). Then, GUS activity was measured by histochemical and fluorometric assays (Jefferson, R. A. Plant Mol. Biol. Reporter 5:387-405 (1987)) and/or by using Real Time PCR for mRNA quantitation.
Yarrowia lipolytica ATCC #76982 strains containing plasmids pY5-30, pYZGDG, pYZGMG, pDMW212 and pDMW214 were grown from single colonies in 3 mL MM at 30° C. to an OD600˜1.0. Then, 100 μl of cells were collected by centrifugation, resuspended in 100 μl of histochemical staining buffer, and incubated at 30° C. Staining buffer was prepared by dissolving 5 mg of 5-bromo-4-chloro-3-indolyl glucuronide (X-Gluc) in 50 μl dimethyl formamide, followed by the addition of 5 mL 50 mM NaPO4, pH 7.0.
In a separate experiment, Y. lipolytica Y2034 strains containing plasmids pY5-30, pYGPAT-GUS, pYAT-GUS and pDMW214 were grown from single colonies in 5 mL SD media at 30° C. for 24 hrs to an OD600˜8.0. Then, 1 mL of cells were collected by centrifugation. The remaining cultures were centrifuged and washed 2× with HGM, resuspended in 5 mL each of HGM and allowed to grow at 30° C. further. […]

Compound	concentration in minimal medium sufficient to inhibit growth [1]	promoter activity relative to activity in SD medium ([2]; after 120 hrs in HGM)	GUS activity ([2]; strain Y2034, 24 hr, HGM)	GUS activity ([2]; strain Y2034, 48 hr, SD)	GUS activity ([2]; strain Y2034, 120 hr HGM)	increase of promoter activity ([2]; switched from SD medium into HGM and grown for 24 hrs)	Activity “Rank” [3]	promoter activity by histochemical staining ([4]; strain Y2034, 24 hr in SD medium, FIG. 5C)	promoter activity by histochemical staining ([4]; strain Y2034, grown in HGM for 24 hrs)
CCOC(=O)c1ccccc1S(=O)(=O)NC(=O)Nc1nc(Cl)cc(OC)n1 [chlorimuron ethyl]	100 µg/mL								
YAT1: Y. lipolytica ammonium transporter promoter, SEQ ID NO:165		25 ×	19.154 nmoles of 4-MU per minute per mg of protein	0.536 nmoles of 4-MU per minute per mg of protein	13.400 nmoles of 4-MU per minute per mg of protein	~37 fold	6	active; also recorded: stronger than the TEF promoter but significantly weaker than the FBAIN promoter and GPAT promoter	stronger than the GPAT promoter and comparable with the FBAIN promoter
